Results published in patent publication US20250134855A1, “CO[…] AND METHODS OF USING SAME” (LYKOS THERAPEUTICS, INC., priority 2022, published 2025).
Where two headings read alike, the source gives them in different places.

Experiments:
[1] = system: participants with severe PTSD; experiment: MAPP1 Phase 3: Sheehan Disability Scale (SDS); type: in vivo, human
Description: FIG. 36 and FIG. 37 show the time course of improvement in Clinician Administered PTSD Scale for DSM-5 (CAPS-5) total severity score versus placebo. Each show a treatment difference between MDMA and placebo after 3 medication sessions with psychological intervention. […] Between the second and third treatment sessions, the difference between the groups appeared to continue to increase in both studies. The primary efficacy measure was change from baseline in the CAPS-5 total severity score at 18 weeks, which was evaluated 2 months after the final dosing session. The CAPS-5 is a 30-item, clinician-rated scale used to assess severity of PTSD symptoms and diagnostic status according to DSM-5 criteria, as described herein. Scores on the CAPS 5 range from 0 to 80, with higher scores indicating more severe PTSD symptoms. In both studies, a secondary efficacy measure was change from baseline in Sheehan Disability Scale (SDS) mean item scores at 18 weeks. The modified SDS is a 3-item, clinician-rated scale measuring the degree of functional impairment in work, family, and social life. Scores on the SDS mean items range from 0 to 10, with higher scores indicating more functional impairment. In these studies, the efficacy assessments were administered by blinded independent raters 18 to 30 days after medication sessions 1 and 2.
MAPP1 was a Phase 3 randomized, placebo-controlled, 2-arm, double-blind, multi-site study conducted to investigate the efficacy and safety of MDMA-AT in participants with severe PTSD. This study is also discussed in Mitchell et. al., Nature Medicine 2021, 27, 1025-1033. This study included 3 experimental sessions of therapy combined with either MDMA·HCl or placebo. During Experimental Session 1, participants received a split dose of 120 mg (80 mg+40 mg).
Participants received an escalated split dose of 180 mg during Experimental Sessions 2 and 3 unless there were tolerability issues or the participant declined. The primary outcome measure, the CAPS-5, evaluated changes in PTSD symptom severity and the secondary outcome measure, the SDS, evaluated changes in functional impairment. Both measures were assessed by a blinded centralized language-specific IR pool.
The de jure estimand of treatment efficacy was used to determine the effect of MDMA-AT on SDS total score.

healthy individuals = experiment: Study MPKF: SE scores and C-SSRS; set-up: species or system human; conditions: in vivo
Description: Those increases from baseline were observed between 0.5 to 4 hours after dosing. […] The other scores remained relatively stable in comparison to baseline across the sessions.

[2] = cited from earlier work
dogs = experiment: 28-day repeat-dose toxicity, weekly oral, dogs; conditions: any dose
[3] = system: participants with PTSD of moderate or greater severity; experiment: MAPP2 Phase 3: safety, adverse events; type: in vivo, human
Description: MAPP2 was a Phase 3 randomized, placebo-controlled, 2-arm, double-blind, multi-site study conducted to investigate the efficacy and safety of MDMA-AT in participants with PTSD of moderate or greater severity. This study included 3 experimental sessions of therapy combined with either MDMA or placebo. During Experimental Session 1, participants received a split dose of 120 mg (80 mg+40 mg). Participants received an escalated split dose of 180 mg during Experimental Sessions 2 and 3 unless there were tolerability issues or the participant declined.
Overall, 102 (98.1%) participants reported at least 1 TEAE during the study period (Table 52riod (Table 52riod (Table 52). Of these, 2 (3.9%) participants from the placebo group were discontinued due to TEAE (abdominal pain and suicidal ideation). There were no serious TEAEs or deaths reported during the study. Adverse events of special interest included a subset of AEs involving cardiac function, suicidality, and MDMA abuse. There were 6 (11.3%) participants in the MDMA group and 3 (5.9%) participants in the placebo group with an TEAE of special interest. AESIs related to suicidality were reported in 2 MDMA participants and 2 placebo participants. AESIs related to cardiac function were reported in 4 MDMA participants and 1 placebo participant (all palpitations). […] A listing of all TEAEs from MDMA-AT group with ≥5% incidence and twice the prevalence of placebo group is provided below in Table 44 Table 44 Table 44.

[4] = MAPP1, mITT, Baseline (Visit 3)
[5] = MAPP1, mITT, Baseline to Visit 19
[6] = MAPP1, mITT, Visit 19 (Primary Endpoint)
[7] = end of treatment, 42 patients (study not given)

**Q.** What does the source list for CNC(C)Cc1ccc2c(c1)OCO2 (centres unmarked) [MDMA, 3,4-methylenedioxymethamphetamine]?
**A.** SDS Total Score CFB, LSMean ([1]; MAPP1, mITT, MMRM, Visit 19): −3.15; SDS Total Score CFB, LSMean for Treatment Difference ([1]; MAPP1, mITT, MMRM, vs placebo with therapy, Visit 19): −1.36; SDS Total Score, Mean [1, 4]: 6.8; SDS Total Score, Median [1, 4]: 6.8; SDS Total Score CFB, Mean [1, 5]: −3.1; SDS Total Score CFB, Median [1, 5]: −2.5; SDS Total Score, Mean ([1]; MAPP1, mITT, Visit 8): 5.0; SDS Total Score, Median ([1]; MAPP1, mITT, Visit 8): 5.0; SDS Total Score, Mean ([1]; MAPP1, mITT, Visit 13): 4.1; SDS Total Score, Median ([1]; MAPP1, mITT, Visit 13): 4.7; SDS Total Score, Mean [1, 6]: 3.8; SDS Total Score, Median [1, 6]: 3.4; reduction in SDS total scores ([1]; MAPP1, MMRM, de jure estimand): −3.15; SDS Remission (SDS mean item score < 3) [1, 7]: (42.9) %; SDS Remission (SDS mean item score < 3), n [1, 7]: 18; SDS Responder (4 point or greater reduction from baseline SDS mean item score) [1, 7]: (38.1) %; SDS Responder (4 point or greater reduction from baseline SDS mean item score), n [1, 7]: 16; C-SSRS scores (healthy individuals): No abnormal C-SSRS scores; unchanged MDMA excreted in urine ([2]; oral 1.0 mg/kg MDMA): 8%; unchanged MDMA excreted in urine ([2]; oral 1.6 mg/kg MDMA): 11%; neurohistopathology of the brain (dogs): No morphologic changes; AESIs of MDMA abuse ([3]; MAPP2): no AESIs of MDMA abuse; TEAE Abdominal pain upper, % ([3]; MAPP2): (9.4) %; TEAE Bruxism, % ([3]; MAPP2): (13.2) %; TEAE Chest discomfort, % ([3]; MAPP2): (17.0) %; TEAE Chills, % ([3]; MAPP2): (15.1) %; TEAE Decreased appetite, % ([3]; MAPP2): (35.8) %; TEAE Dissociation, % ([3]; MAPP2): (5.7) %; TEAE Dry mouth, % ([3]; MAPP2): (17.0) %; TEAE Feeling abnormal, % ([3]; MAPP2): (9.4) %; TEAE Feeling cold, % ([3]; MAPP2): (20.8) %; TEAE Feeling hot, % ([3]; MAPP2): (26.4) %; TEAE Feeling jittery, % ([3]; MAPP2): (15.1) %; TEAE Feeling of body temperature change, % ([3]; MAPP2): (9.4) %; TEAE Flushing, % ([3]; MAPP2): (5.7) %; TEAE Gait disturbance, % ([3]; MAPP2): (5.7) %; TEAE Heart rate increased, % ([3]; MAPP2): (5.7) %; TEAE Hyperhidrosis, % ([3]; MAPP2): (34.0) %; TEAE Hypoaesthesia, % ([3]; MAPP2): (9.4) %; TEAE Muscle spasms, % ([3]; MAPP2): (7.5) %; TEAE Muscle tightness, % ([3]; MAPP2): (58.8) %; TEAE Mydriasis, % ([3]; MAPP2): (11.3) %; TEAE Nausea, % ([3]; MAPP2): (45.3) %; TEAE Nystagmus, % ([3]; MAPP2): (13.2) %; TEAE Palpitations, % ([3]; MAPP2): (9.4) %; TEAE Panic attack, % ([3]; MAPP2): (5.7) %; TEAE Paraesthesia, % ([3]; MAPP2): (18.9) %; TEAE Restlessness, % ([3]; MAPP2): (15.1) %; TEAE Thirst, % ([3]; MAPP2): (7.5) %; TEAE Tremor, % ([3]; MAPP2): (11.3) %; TEAE Vision blurred, % ([3]; MAPP2): (15.1) %; TEAE Visual impairment, % ([3]; MAPP2): (5.7) %; participants with an TEAE of special interest ([3]; MAPP2): 11.3%; At least one TEAE of Special Interest, % ([3]; MAPP2, Safety Set): (11.3) %; At least one Treatment-emergent SAE Leading to Death, % ([3]; MAPP2, Safety Set): (0.0) %; At least one Treatment-emergent SAE, % ([3]; MAPP2, Safety Set): (0.0) %; Discontinued study treatment due to any TEAE(s), % ([3]; MAPP2, Safety Set): (0.0) %; Participants with at least 1 TEAE during Experimental Sessions and 2 Days Following, % ([3]; MAPP2, Safety Set): (100.0) %; Subjects with at least 1 Severe TEAE, % ([3]; MAPP2, Safety Set): (9.4) %; Subjects with at least 1 TEAE, % ([3]; MAPP2, Safety Set): (100.0) %; heart rate and blood pressure during experimental sessions ([3]; MAPP2, dose-dependent, no clinical intervention required): transient increases; participants with at least 1 temporally related TEAE ([3]; MAPP2, during an experiment session or up to 2 days following): All participants
